EPA's ToxValDB 9.5

System: Rattus norvegicus
Conditions: for LOEL / NOEL: oral, gavage
[1] = reproduction developmental, duration: 28 days, inhalation, M, Wistar, generation: P0, P0: Whole Body: Body Weight Change
[2] = short-term, duration: 28 days, inhalation, F, Wistar, Kidney: Creatinine (CREAT)
[3] = short-term, duration: 28 days, inhalation, F, Wistar, Kidney: Creatinine (CREAT) + Multi-Organ: Gamma-Glutamyl Transferase (GGT)
[4] = short-term, duration: 28 days, inhalation, F, Wistar, Kidney: Fluoride, Total Urinary Excretion + Kidney: Fluoride, Urine + Kidney: Urinary Fluoride/Creatinine Ratio + Liver: Liver Weight, …
[5] = short-term, duration: 28 days, inhalation, F, Wistar, Liver: Liver Weight, Absolute + Liver: Liver Weight, Relative + Lung: Lung Histopathology + Lung: Lung Weight, Absolute + Lung: Lung Weight…
[6] = short-term, duration: 28 days, inhalation, F, Wistar, Liver: Total Bilirubin (TBILI)
[7] = short-term, duration: 28 days, inhalation, M, Wistar, Kidney: Creatinine (CREAT) + Whole Body: Body Weight Change + Whole Body: Food Conversion Efficiency + Whole Body: Food Intake
[8] = short-term, duration: 28 days, inhalation, M, Wistar, Kidney: Fluoride, Total Urinary Excretion + Kidney: Fluoride, Urine + Kidney: Urinary Fluoride/Creatinine Ratio + Lung: Lung Histopathology…
[9] = short-term, duration: 28 days, inhalation, M, Wistar, Liver: Albumin (A) + Liver: Triglycerides (TRIG) + Multi-Organ: Cholesterol, Total + Multi-organ: Glucose (GLU)
[10] = short-term, duration: 28 days, inhalation, M, Wistar, Liver: Albumin (A) + Multi-Organ: Glucose (GLU) + Renal: Fluoride, Total Urinary Excretion + Renal: Fluoride, Urine + Renal: Fluoride/…
[11] = short-term, duration: 28 days, inhalation, M, Wistar, Lung: Lung Histopathology + Lung: Lung Weight, Absolute + Lung: Lung Weight, Relative + Spleen: Spleen Weight, Absolute + Spleen: Spleen …
[12] = short-term, duration: 28 days, inhalation, M, Wistar, Whole Body: Body Weight Change
[13] = subchronic, duration: 91 days, inhalation, F, Wistar, Blood: Albumin/Globulin (A/G) Ratio + Liver: Liver Weight, Relative + Multi-Organ: Acyl-CoA Oxidase Activity
[14] = subchronic, duration: 91 days, inhalation, F, Wistar, Kidney: Kidney Weight, Relative + Liver: Albumin (A)
[15] = subchronic, duration: 91 days, inhalation, M, Wistar, Blood: Mean Corpuscular Hemoglobin (MCH) + Liver: Albumin (A) + Liver: Alkaline Phosphatase (ALP) + Liver: Cholesterol (CHOL), Total + Liver…
[16] = subchronic, duration: 91 days, inhalation, M, Wistar, Blood: Mean Corpuscular Hemoglobin (MCH), Recovery + Blood: Mean Corpuscular Volume (MCV) + Blood: Platelet Count (PLT), Recovery + Blood: …
[17] = reproduction developmental, duration: 28 days, inhalation, M, Sprague-Dawley, generation: P0, P0: Other Systems: Bone: Bone Histopathology + P0: Other Systems: Esophagus: Esophagus Histopathology + P0: Other Systems: Eye: Eye …
[18] = reproduction developmental, duration: 50 days, inhalation, F, Sprague-Dawley, generation: P0, P0: Other Systems: Bone: Bone Histopathology + P0: Other Systems: Esophagus: Esophagus Histopathology + P0: Other Systems: Eye: Eye …
[19] = short-term, duration: 3 weeks, inhalation, M/F, Alpk:Albino, Whole Body: Body Weight Change + Whole Body: Clinical Observations
[20] = chronic, duration: 92 days, F, Wistar, kidney: relative kidney weight
[21] = chronic, duration: 92 days, M, Wistar, liver: relative liver weight
[22] = short-term, duration: 28 days, F, Wistar, kidney: absolute kidney weight + kidney: relative kidney weight + liver: absolute liver weight + liver: relative liver weight
[23] = short-term, duration: 28 days, M, Wistar, adrenal gland: absolute adrenal gland weight + adrenal gland: relative adrenal gland weight + testis: relative testis weight + thymus: …
[24] = short-term, duration: 28 days, M, Wistar, liver: relative liver weight + spleen: absolute spleen weight

Q: Which NOAEL (developmental, duration: 13 days, inhalation, M/F, Sprague-Dawley, generation: F1, F1: Uterus: Resorptions, Early + F1: Uterus: Resorptions, Late + F1: Whole Body: Fetal Alterations, Total) does the source give for O=C(C(F)(F)C(F)(F)F)C(F)(C(F)(F)F)C(F)(F)F [Perfluoro-2-methyl-3-pentanone] here?
A: 38800 mg/m3

Q: What about the NOAEL (reproduction developmental, duration: 4 days, inhalation, F, Wistar, generation: F1, F1: Whole Body: Body Weight Change + F1: Whole Body: Body Weight, Absolute + F1: Whole Body: Clinical Observations + F1: Whole Body: Live …) of the same molecule?
A: 38800 mg/m3

Q: And the NOAEL (reproduction developmental, duration: 4 days, inhalation, F, Wistar, generation: P0, P0: Uterus: Estrous Cycle + P0: Whole Body: Body Weight Change + P0: Whole Body: Body Weight, Absolute + P0: Whole Body: Clinical …)?
A: 38800 mg/m3

Q: What about the NOAEL (reproduction developmental, duration: 13 days, inhalation, F, Sprague-Dawley, generation: P0, P0: Ovary: Corpora Lutea + P0: Ovary: Ovary, Necropsy + P0: Placenta: Normal Placenta + P0: Uterus: Implantation + P0: Uterus: Uterine …) of the same molecule?
A: 38800 mg/m3

Q: What about the NOAEL (reproduction developmental, duration: 28 days, inhalation, M, Wistar, generation: P0, P0: Epididymis: Epididymis Weight, Absolute + P0: Testis: Testis Weight, Absolute + P0: Whole Body: Body Weight, Absolute + P0: Whole Body: …) of the same molecule?
A: 38800 mg/m3

Q: And the LOAEL [1]?
A: 12900 mg/m3

Q: And the NOAEL [1]?
A: 3880 mg/m3

Q: What about the NOAEL (short-term, duration: 28 days, inhalation, F, Wistar, Adrenal: Adrenal Gland Histopathology + Bladder: Urinary Bladder Histopathology + Blood: Albumin/Globulin (A/G) Ratio + Blood: Hematocrit (…) of the same molecule?
A: 259000 mg/m3

Q: What about the NOAEL (short-term, duration: 28 days, inhalation, F, Wistar, Blood: Albumin/Globulin (A/G) Ratio + Blood: Hematology, Unspecified + Liver: Albumin (A) + Liver: Liver Histopathology + Multi-Organ: …) of the same molecule?
A: 245000 mg/m3

Q: What about the LOAEL [2] of the same molecule?
A: 259000 mg/m3

Q: And the NOAEL [2]?
A: 129000 mg/m3

Q: And the LOAEL [3]?
A: 245000 mg/m3

Q: What about the NOAEL [3] of the same molecule?
A: 125000 mg/m3

Q: What about the LOAEL [4] of the same molecule?
A: 125000 mg/m3

Q: And the NOAEL [4]?
A: 49600 mg/m3

Q: What about the LOAEL [5] of the same molecule?
A: 129000 mg/m3

Q: What about the NOAEL [5] of the same molecule?
A: 51700 mg/m3

Q: And the LOAEL (short-term, duration: 28 days, inhalation, F, Wistar, Liver: Peroxisome Induction + Liver: Phospholipid + Liver: Triglycerides (TRIG) + Spleen: Spleen Weight, Absolute + Spleen: Spleen Weight, …)?
A: 12900 mg/m3

Q: What about the LOAEL (short-term, duration: 28 days, inhalation, F, Wistar, Liver: Peroxisome Induction + Liver: Phospholipid + Spleen: Spleen Weight, Absolute + Spleen: Spleen Weight, Relative) of the same molecule?
A: 12400 mg/m3

Q: What about the LOAEL [6] of the same molecule?
A: 51700 mg/m3

Q: And the NOAEL [6]?
A: 12900 mg/m3

Q: And the NOAEL (short-term, duration: 28 days, inhalation, M, Wistar, Adrenal: Adrenal Gland Histopathology + Bladder: Urinary Bladder Histopathology + Blood: Hematocrit (HCT) + Blood: Hemoglobin (HGB) + Blood…)?
A: 259000 mg/m3

Q: And the NOAEL (short-term, duration: 28 days, inhalation, M, Wistar, Blood: Albumin/Globulin (A/G) Ratio + Blood: Hematology, Unspecified + Kidney: Creatinine (CREAT) + Liver: Phospholipid + Multi-Organ: Gamma…)?
A: 245000 mg/m3

Q: What about the LOAEL (short-term, duration: 28 days, inhalation, M, Wistar, Blood: Albumin/Globulin (A/G) Ratio + Liver: Liver Histopathology + Liver: Liver Weight, Absolute + Liver: Liver Weight, Relative + Liver: …) of the same molecule?
A: 12900 mg/m3

Q: And the LOAEL [7]?
A: 259000 mg/m3

Q: And the NOAEL [7]?
A: 129000 mg/m3

Q: And the LOAEL [8]?
A: 125000 mg/m3

Q: And the NOAEL [8]?
A: 49600 mg/m3

Q: What about the LOAEL [9] of the same molecule?
A: 49600 mg/m3

Q: And the NOAEL [9]?
A: 12400 mg/m3

Q: And the LOAEL [10]?
A: 51700 mg/m3

Q: And the NOAEL [10]?
A: 12900 mg/m3

Q: And the LOAEL (short-term, duration: 28 days, inhalation, M, Wistar, Liver: Liver Histopathology + Liver: Liver Weight, Absolute + Liver: Liver Weight, Relative + Liver: Peroxisome Induction)?
A: 12400 mg/m3

Q: What about the LOAEL [11] of the same molecule?
A: 129000 mg/m3

Q: And the NOAEL [11]?
A: 51700 mg/m3

Q: And the LOAEL [12]?
A: 245000 mg/m3

Q: What about the NOAEL [12] of the same molecule?
A: 125000 mg/m3

Q: And the LOAEL [13]?
A: 38800 mg/m3

Q: What about the NOAEL [13] of the same molecule?
A: 12900 mg/m3

Q: And the NOAEL (subchronic, duration: 91 days, inhalation, F, Wistar, Blood: Albumin/Globulin (A/G) Ratio, Recovery + Blood: Mean Corpuscular Hemoglobin (MCH) + Blood: Mean Corpuscular Volume (MCV) + Blood: Red…)?
A: 38800 mg/m3

Q: What about the LOAEL [14] of the same molecule?
A: 12900 mg/m3

Q: What about the NOAEL [14] of the same molecule?
A: 3880 mg/m3

Q: What about the LOAEL (subchronic, duration: 91 days, inhalation, F, Wistar, Spleen: Spleen Weight, Absolute) of the same molecule?
A: 3880 mg/m3

Q: What about the LOAEL (subchronic, duration: 91 days, inhalation, M, Wistar, Blood: Albumin/Globulin (A/G) Ratio + Kidney: Kidney Weight, Absolute + Kidney: Kidney Weight, Relative + Liver: Liver Weight, Absolute + …) of the same molecule?
A: 3880 mg/m3

Q: What about the NOAEL (subchronic, duration: 91 days, inhalation, M, Wistar, Blood: Albumin/Globulin (A/G) Ratio, Recovery + Brain: Brain Weight, Absolute + Brain: Brain Weight, Relative + Eye: Ophthalmology, …) of the same molecule?
A: 38800 mg/m3

Q: And the LOAEL [15]?
A: 12900 mg/m3

Q: What about the NOAEL [15] of the same molecule?
A: 3880 mg/m3

Q: What about the LOAEL [16] of the same molecule?
A: 38800 mg/m3

Q: And the NOAEL [16]?
A: 12900 mg/m3

Q: Which results are given for FC(F)=C(F)OC(F)(F)C(F)(F)C(F)(F)F [Perfluoropropyl trifluorovinyl ether]?
A: LOAEL (reproduction developmental, duration: 28 days, inhalation, M, Sprague-Dawley, generation: P0, P0: Cardiovascular: Aorta: Aorta Histopathology + P0: Cardiovascular: Heart: Heart Histopathology + P0: Cardiovascular: Heart: Heart Weight…): 43900 mg/m3; LOAEL [17]: 43900 mg/m3; NOAEL [17]: 10900 mg/m3; LOAEL (reproduction developmental, duration: 50 days, inhalation, F, Sprague-Dawley, generation: P0, P0: Cardiovascular: Aorta: Aorta Histopathology + P0: Cardiovascular: Heart: Heart Histopathology + P0: Cardiovascular: Heart: Heart Weight…): 43900 mg/m3; LOAEL [18]: 43900 mg/m3; NOAEL [18]: 10900 mg/m3; NEL (short-term, duration: 3 weeks, inhalation, F, Alpk:Albino, Multi-organ: Uterus and Gonad (Unspecified) Histopathology): 54400 mg/m3; NEL (short-term, duration: 3 weeks, inhalation, M/F, Alpk:Albino, Blood: Potassium (K), Blood + Blood: Sodium (Na), Blood + Heart: Heart Histopathology + Kidney: Glucose (GLU), Urine + Kidney: Protein, …): 54400 mg/m3; LEL [19]: 54400 mg/m3; NEL [19]: 27200 mg/m3; NEL (short-term, duration: 3 weeks, inhalation, M, Alpk:Albino, Multi-organ: Epididymis and Gonad (Unspecified) Histopathology): 54400 mg/m3

Q: Cc1ccc(S(=O)(=O)NC(=O)Nc2cccc(OS(=O)(=O)c3ccc(C)cc3)c2)cc1 [Pergafast 201] was tested. Which LOEL [20] did it give?
A: 150 mg/kg-day

Q: And the NOEL [20]?
A: 50 mg/kg-day

Q: And the LOEL (chronic, duration: 92 days, F, Wistar, liver: absolute liver weight + liver: relative liver weight)?
A: 12.5 mg/kg-day

Q: What about the LOEL [21] of the same molecule?
A: 150 mg/kg-day

Q: And the NOEL [21]?
A: 50 mg/kg-day

Q: What about the LOEL [22] of the same molecule?
A: 150 mg/kg-day

Q: What about the NOEL [22] of the same molecule?
A: 30 mg/kg-day

Q: And the LOEL [23]?
A: 750 mg/kg-day

Q: What about the NOEL [23] of the same molecule?
A: 150 mg/kg-day

Q: What about the LOEL (short-term, duration: 28 days, M, Wistar, brain: relative brain weight + liver: absolute liver weight) of the same molecule?
A: 30 mg/kg-day

Q: And the LOEL [24]?
A: 150 mg/kg-day

Q: And the NOEL [24]?
A: 30 mg/kg-day
